Test results reported in ChEMBL document CHEMBL5528056, “BAY-9835: Discovery of the First Orally Bioavailable ADAMTS7 Inhibitor” (J Med Chem, 2024).
Values after ≈ are worked out from the molar mass of the structure shown.

Key:
[1] = Half life in Beagle dog at 1 mg/kg, po measured for >24 hrs by HPLC-MS/MS analysis; format: ADME, organism-based, Canis lupus familiaris; conditions: in vivo
[2] = biological target: Cytochrome P450 2D6 (Homo sapiens, UniProt P10635); test: Inhibition of CYP2D6 in human liver microsomes using dextromethorphan as substrate upto 20 uM by LC-MS/MS analysis; format: ADME, Microsome
Chain of Cytochrome P450 2D6 (P10635 whole entry): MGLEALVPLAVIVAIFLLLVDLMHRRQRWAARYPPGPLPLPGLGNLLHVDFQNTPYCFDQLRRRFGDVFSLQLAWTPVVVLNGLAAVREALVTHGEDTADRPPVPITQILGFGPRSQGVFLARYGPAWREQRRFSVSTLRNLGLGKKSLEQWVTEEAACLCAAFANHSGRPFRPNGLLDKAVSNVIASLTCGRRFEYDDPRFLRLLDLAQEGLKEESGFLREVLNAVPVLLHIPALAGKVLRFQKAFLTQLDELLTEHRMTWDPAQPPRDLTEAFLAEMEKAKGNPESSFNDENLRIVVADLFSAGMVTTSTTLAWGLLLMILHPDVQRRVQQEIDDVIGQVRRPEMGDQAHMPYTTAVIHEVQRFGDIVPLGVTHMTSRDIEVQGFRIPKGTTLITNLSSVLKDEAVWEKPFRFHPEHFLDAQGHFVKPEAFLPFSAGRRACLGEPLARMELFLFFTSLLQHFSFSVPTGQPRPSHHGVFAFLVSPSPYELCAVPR

[3] = Dose normalized AUC in Wistar rat at 0.3 mg/kg, iv measured for >24 hrs by HPLC-MS/MS analysis; format: ADME, organism-based; conditions: in vivo
[4] = Half life in Wistar rat at 1 mg/kg, po measured for >24 hrs by HPLC-MS/MS analysis; format: ADME, organism-based; conditions: in vivo
[5] = Selectivity ratio of IC50 for MMP15 (unknown origin) to IC50 for ADAMTS7 (unknown origin)
[6] = Dose normalized AUC in Wistar rat at 1 mg/kg, po measured for >24 hrs by HPLC-MS/MS analysis; format: ADME, organism-based; conditions: in vivo
[7] = Volume of distribution at steady state in Wistar rat at 0.3 mg/kg, iv measured for >24 hrs by HPLC-MS/MS analysis; format: ADME, organism-based; conditions: in vivo
[8] = Selectivity ratio of IC50 for C-terminal 6His-tagged recombinant human ADAM8 (1 to 497 residues) using Dabcyl-SSNQLQRR-Glu(EDANS)-NH2 as substrate to IC50 for ADAMTS7 (unknown origin)
[9] = biological target: A disintegrin and metalloproteinase with thrombospondin motifs 7 (Rattus norvegicus, UniProt Q1EHB3); test: Inhibition of recombinant rat ADAMTS7 using HiLyteFluor-488 DELSSMVLELRGLRT-K(QXL520)-E-NH2 as substrate incubated for 120 mins by FRET assay
Chain of A disintegrin and metalloproteinase with thrombospondin motifs 7 (Q1EHB3 whole entry): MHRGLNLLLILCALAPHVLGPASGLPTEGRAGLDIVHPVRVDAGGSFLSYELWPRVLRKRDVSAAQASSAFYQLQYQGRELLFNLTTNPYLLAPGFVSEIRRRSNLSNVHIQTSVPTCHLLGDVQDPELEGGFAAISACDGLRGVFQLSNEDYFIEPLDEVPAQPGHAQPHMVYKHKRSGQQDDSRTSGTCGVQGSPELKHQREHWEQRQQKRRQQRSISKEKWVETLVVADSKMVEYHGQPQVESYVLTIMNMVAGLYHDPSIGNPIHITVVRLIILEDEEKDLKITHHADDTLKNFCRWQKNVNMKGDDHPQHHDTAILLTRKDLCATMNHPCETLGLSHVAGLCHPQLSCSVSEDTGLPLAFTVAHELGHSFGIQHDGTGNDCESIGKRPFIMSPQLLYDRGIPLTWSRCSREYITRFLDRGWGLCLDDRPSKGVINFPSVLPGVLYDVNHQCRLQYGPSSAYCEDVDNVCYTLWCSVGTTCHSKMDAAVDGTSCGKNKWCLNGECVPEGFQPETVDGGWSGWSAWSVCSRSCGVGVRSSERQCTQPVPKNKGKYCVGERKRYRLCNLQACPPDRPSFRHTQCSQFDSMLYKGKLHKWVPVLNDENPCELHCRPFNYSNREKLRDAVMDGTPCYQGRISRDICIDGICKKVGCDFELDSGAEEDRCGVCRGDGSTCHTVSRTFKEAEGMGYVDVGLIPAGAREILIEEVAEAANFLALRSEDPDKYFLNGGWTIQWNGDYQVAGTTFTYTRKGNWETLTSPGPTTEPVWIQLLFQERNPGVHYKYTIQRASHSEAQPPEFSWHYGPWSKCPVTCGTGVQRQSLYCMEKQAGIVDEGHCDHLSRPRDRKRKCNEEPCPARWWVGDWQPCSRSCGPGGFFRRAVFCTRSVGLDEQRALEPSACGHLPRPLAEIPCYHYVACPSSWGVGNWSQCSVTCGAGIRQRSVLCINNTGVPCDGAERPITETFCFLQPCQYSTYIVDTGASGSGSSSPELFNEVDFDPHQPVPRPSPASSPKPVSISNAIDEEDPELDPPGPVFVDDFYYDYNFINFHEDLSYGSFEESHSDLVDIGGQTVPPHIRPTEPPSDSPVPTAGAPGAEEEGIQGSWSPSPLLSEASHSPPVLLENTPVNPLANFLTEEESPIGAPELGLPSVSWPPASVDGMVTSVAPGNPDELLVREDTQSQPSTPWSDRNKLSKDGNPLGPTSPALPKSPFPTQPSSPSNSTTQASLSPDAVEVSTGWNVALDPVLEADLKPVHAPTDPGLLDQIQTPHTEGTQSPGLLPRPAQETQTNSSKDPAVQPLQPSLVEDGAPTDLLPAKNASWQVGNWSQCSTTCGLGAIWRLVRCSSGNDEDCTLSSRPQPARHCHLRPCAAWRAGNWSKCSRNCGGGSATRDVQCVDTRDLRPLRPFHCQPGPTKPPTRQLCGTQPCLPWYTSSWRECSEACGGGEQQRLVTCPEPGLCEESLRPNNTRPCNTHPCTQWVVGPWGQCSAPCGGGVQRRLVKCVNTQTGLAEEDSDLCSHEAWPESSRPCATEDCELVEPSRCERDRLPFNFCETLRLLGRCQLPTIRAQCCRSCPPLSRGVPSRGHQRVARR

[10] = Dose normalized AUC in Beagle dog at 1 mg/kg, po measured for >24 hrs by HPLC-MS/MS analysis; format: ADME, organism-based, Canis lupus familiaris; conditions: in vivo
[11] = Selectivity ratio of IC50 for ADAMTS4 (unknown origin) to IC50 for ADAMTS7 (unknown origin)
[12] = Dose normalized AUC in C57bl6 mouse at 0.3 mg/kg, iv measured for >24 hrs by HPLC-MS/MS analysis; format: ADME, organism-based; conditions: in vivo
[13] = Clearance in Wistar rat at 0.3 mg/kg, iv measured for >24 hrs by HPLC-MS/MS analysis; format: ADME, organism-based; conditions: in vivo
[14] = biological target: Sodium channel protein type 5 subunit alpha (Homo sapiens, UniProt Q14524); test: Inhibition of hNaV1.5 upto 10 uM by voltage clamp method; format: toxicity
[15] = Volume of distribution at steady state in C57bl6 mouse at 0.3 mg/kg, iv measured for >24 hrs by HPLC-MS/MS analysis; format: ADME, organism-based; conditions: in vivo
[16] = Clearance in iv-dosed Wistar rat measured after 24 hrs by HPLC-MS/MS analysis; format: ADME; conditions: in vivo
[17] = Solubility of compound in FeSSIF measured after 24 hrs by HPLC analysis; format: ADME; conditions: simulated gi fluid
[18] = biological target: T1, Cytochrome P450 2C8 (Homo sapiens, UniProt P10632); test: Inhibition of CYP2C8 in human liver microsomes using diclofenac as substrate upto 20 uM by LC-MS/MS analysis; format: ADME, Microsome
T1 sequence (P10632 whole entry): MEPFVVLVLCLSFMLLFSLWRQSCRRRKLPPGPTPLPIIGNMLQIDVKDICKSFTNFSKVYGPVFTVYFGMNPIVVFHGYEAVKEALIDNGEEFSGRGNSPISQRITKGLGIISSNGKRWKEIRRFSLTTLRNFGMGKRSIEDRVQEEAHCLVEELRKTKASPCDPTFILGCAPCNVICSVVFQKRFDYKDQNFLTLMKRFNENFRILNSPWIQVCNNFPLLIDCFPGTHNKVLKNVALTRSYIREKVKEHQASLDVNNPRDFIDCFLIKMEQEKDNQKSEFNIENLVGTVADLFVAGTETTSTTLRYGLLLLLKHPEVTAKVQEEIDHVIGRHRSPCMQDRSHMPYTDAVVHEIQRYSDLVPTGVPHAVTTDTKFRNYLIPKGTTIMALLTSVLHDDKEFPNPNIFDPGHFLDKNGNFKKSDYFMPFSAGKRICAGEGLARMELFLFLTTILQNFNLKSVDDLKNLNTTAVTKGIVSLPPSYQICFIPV

[19] = biological target: T1, Cytochrome P450 2C8; test: Inhibition of CYP2C8 in human liver microsomes using amodiaquin as substrate upto 20 uM by LC-MS/MS analysis; format: ADME, Microsome
[20] = Selectivity ratio of IC50 for ADAM17 (unknown origin) to IC50 for ADAMTS7 (unknown origin)
[21] = Fraction unbound in human plasma; format: ADME, cell-free
[22] = Stability in aqueous solution at pH 1 to 7 measured after 24 hrs by HPLC analysis; format: physicochemical; conditions: buffer, pH 1, 24 h
[23] = Selectivity ratio of IC50 for C-terminal 10His-tagged recombinant human ADAM10 (214 to 672 residues) expressed in baculovirus infected Sf21 cells using Dabcyl-SSNQLQRR-Glu(EDANS)-NH2 as substrate to IC50 for ADAMTS7 (unknown origin)
[24] = Clearance in C57bl6 mouse at 0.3 mg/kg, iv measured for >24 hrs by HPLC-MS/MS analysis; format: ADME, organism-based; conditions: in vivo
[25] = Solubility of compound in water at pH 7 measured after 24 hrs by HPLC analysis; format: physicochemical; conditions: buffer, pH 7, 24 h
[26] = biological target: Voltage-gated inwardly rectifying potassium channel KCNH2 (Homo sapiens, UniProt Q12809); test: Inhibition of hERG upto 10 uM by whole-cell voltage clamp method; format: toxicity
Chain of Voltage-gated inwardly rectifying potassium channel KCNH2 (Q12809 whole entry): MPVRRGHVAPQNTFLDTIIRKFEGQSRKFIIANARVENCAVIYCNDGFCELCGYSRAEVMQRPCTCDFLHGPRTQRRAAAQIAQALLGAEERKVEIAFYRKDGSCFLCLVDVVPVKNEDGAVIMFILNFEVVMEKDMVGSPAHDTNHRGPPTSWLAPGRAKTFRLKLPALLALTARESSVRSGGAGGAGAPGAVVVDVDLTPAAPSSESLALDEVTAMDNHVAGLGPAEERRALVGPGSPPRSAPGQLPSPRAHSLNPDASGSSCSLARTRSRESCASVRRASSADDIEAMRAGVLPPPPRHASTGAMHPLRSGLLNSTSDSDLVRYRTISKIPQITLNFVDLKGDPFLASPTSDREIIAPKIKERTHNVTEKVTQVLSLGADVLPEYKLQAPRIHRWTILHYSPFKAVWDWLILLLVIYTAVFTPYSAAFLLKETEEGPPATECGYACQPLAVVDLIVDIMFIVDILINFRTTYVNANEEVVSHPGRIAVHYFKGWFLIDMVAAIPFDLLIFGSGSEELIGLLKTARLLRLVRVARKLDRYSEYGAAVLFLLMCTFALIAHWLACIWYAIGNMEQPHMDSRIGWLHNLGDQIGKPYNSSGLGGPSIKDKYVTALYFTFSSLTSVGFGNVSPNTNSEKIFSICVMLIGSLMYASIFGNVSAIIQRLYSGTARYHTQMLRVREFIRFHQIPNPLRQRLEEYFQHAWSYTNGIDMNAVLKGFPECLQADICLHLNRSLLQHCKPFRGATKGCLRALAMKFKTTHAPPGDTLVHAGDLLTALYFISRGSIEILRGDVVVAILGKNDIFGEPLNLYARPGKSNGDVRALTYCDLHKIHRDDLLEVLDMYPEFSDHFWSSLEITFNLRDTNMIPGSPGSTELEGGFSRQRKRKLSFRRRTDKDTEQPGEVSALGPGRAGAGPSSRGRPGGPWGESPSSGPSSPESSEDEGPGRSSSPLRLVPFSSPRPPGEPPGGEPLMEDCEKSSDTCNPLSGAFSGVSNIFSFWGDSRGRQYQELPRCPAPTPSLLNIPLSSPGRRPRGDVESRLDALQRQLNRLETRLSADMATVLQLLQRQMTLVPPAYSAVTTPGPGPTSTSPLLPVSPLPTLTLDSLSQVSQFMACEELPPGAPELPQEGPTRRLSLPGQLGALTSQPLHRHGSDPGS

[27] = biological target: T2, Cytochrome P450 1A2 (Homo sapiens, UniProt P05177); test: Inhibition of CYP1A2 in human liver microsomes using phenacetin as substrate upto 20 uM by LC-MS/MS analysis; format: ADME, Microsome
T2 sequence (P05177 whole entry): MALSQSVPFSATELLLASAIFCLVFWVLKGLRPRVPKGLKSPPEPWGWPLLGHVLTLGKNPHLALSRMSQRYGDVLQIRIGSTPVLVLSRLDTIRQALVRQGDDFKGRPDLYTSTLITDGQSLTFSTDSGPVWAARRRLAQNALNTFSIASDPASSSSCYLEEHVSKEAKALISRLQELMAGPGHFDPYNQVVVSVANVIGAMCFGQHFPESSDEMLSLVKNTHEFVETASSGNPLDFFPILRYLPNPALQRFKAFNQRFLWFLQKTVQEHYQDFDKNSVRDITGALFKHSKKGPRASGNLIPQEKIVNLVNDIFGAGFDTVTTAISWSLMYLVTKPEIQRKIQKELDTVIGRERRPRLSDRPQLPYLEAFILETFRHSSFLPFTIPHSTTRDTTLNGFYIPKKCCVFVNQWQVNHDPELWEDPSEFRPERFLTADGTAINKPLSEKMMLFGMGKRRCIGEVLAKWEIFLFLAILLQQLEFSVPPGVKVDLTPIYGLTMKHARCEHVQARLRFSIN

[28] = biological target: Cytochrome P450 3A4 (Homo sapiens, UniProt P08684); test: Inhibition of CYP3A4 in human liver microsomes using midazolam as substrate upto 20 uM by LC-MS/MS analysis; format: ADME, Microsome
Chain of Cytochrome P450 3A4 (P08684 whole entry): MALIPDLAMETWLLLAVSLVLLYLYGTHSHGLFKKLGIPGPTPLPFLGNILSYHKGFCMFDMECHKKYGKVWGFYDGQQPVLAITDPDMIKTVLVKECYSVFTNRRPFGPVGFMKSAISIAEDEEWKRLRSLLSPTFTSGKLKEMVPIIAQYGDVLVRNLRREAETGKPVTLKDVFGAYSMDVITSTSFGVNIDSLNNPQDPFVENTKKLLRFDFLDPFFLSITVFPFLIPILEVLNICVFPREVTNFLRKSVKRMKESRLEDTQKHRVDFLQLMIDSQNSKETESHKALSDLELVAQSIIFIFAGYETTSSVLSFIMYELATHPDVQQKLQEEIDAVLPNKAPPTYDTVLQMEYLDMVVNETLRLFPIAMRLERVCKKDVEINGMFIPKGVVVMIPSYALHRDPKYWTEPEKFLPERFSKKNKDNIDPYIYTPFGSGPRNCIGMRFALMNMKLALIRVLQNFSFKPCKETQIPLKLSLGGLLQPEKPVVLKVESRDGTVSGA

[29] = Oral bioavailability in C57bl6 mouse at 1 mg/kg measured for >24 hrs by HPLC-MS/MS analysis; format: ADME, organism-based; conditions: in vivo

SMILES: Cn1nccc1[C@]1(CNC(=O)c2ccc(F)c(F)c2-c2ccc(C(F)(F)F)cc2)NC(=O)NC1=O
- t1/2 [1]: 25 h
- inhibition (INH) [2]: Not Active
- AUC/dose [3]: 3.1 kg·h/L
- t1/2 [4]: 3.7 h
- Ratio IC50 [5]: 13100
- AUC/dose [6]: 3 kg·h/L
- Vdss [7]: 1.2 L/kg
- Ratio IC50 [8]: 375
- IC50 [9]: 0.027 µM
- AUC/dose [10]: 68 kg·h/L
- Ratio IC50 [11]: 1120
- AUC/dose [12]: 1.15 kg·h/L
- CL [13]: 9.17 mL/min/kg
- inhibition (INH) [14]: Not Active
- Vdss [15]: 1.6 L/kg
- CL [16]: 10 mL/min/kg
- solubility [17]: 513 µg/mL (≈ 1040 µM)
- inhibition (INH) [18]: Not Active
- inhibition (INH) [19]: Not Active
- Ratio IC50 [20]: 962
- Fu [21]: 15%
- Stability [22]: Stable
- Ratio IC50 [23]: 5470
- CL [24]: 18.3 mL/min/kg
- solubility [25]: 135 µg/mL (≈ 274 µM)
- inhibition (INH) [26]: Not Active
- inhibition (INH) [27]: Not Active
- inhibition (INH) [28]: Not Active
- bioavailability [29]: 100%
